Laboratory results taken from patent US8211412B2, “Method for skin whitening” (Shiseido Company Ltd., priority 2009, dated 2012).

System: Mouse B16 melanoma cells
Assay: Melanin production inhibition test
Assay type: cell-based
Settings: 3 days after addition, graded by minimum non-cytotoxic concentration at which ratio of melanin amount was 80% or less
Protocol: A test for melanin production inhibition by the compounds of the formula (1) was conducted. The test method is as follows.
Melanin Production Inhibition Test
(1) Inoculation of Cells and Addition of Test Substances
Mouse B16 melanoma cells were inoculated in a six well plate at 100,000 cells/well. The next day, test substance solutions (solvent: DMSO) were added.
(2) Cell Proliferation Test
Three days after the addition of the test substance solution, the medium was removed by aspiration. Then 1 ml of EMEM medium containing 10% Alamar Blue solution was added, and a reaction was allowed to proceed at 37° C. After 30 minutes, 100 μL of the reaction mixture was transferred to a 96 well plate and fluorescence was measured at an excitation wavelength of 544 nm and a measurement wavelength of 590 nm. Using the value thus measured as a relative value of cell count, a ratio of the cell count (% cell count) of the test substance-added group to the test substance-absent group (group in which only the solvent was added) was calculated. […] It was determined that a compound having the % cell count of 80% or more was non-cytotoxic, and that a compound having the % cell count of less than 80% was cytotoxic.
(3) Quantification of Melanin
The cells after the cell proliferation test were washed with PBS three times, and then lysed by addition of 200 μL of 1M NaOH to measure an absorbance at 475 nm. […]

CC1(C)CSC(Nc2ccccc2)=N1 [Compound 1, 4,4-dimethyl-N-phenyl-4,5-dihydrothiazol-2-amine]
Inhibitory effect on melanin production: ⊚ (the minimum concentration for inhibition of melanin production was 1 ppm or less)
